According to patent US8765730B2 (Hoffmann-La Roche Inc, priority 2010, dated 2014):

Target: T1, human GPBAR1 receptor (Homo sapiens, UniProt Q8TDU6)
T1 construct: expressed in transfected cells
T1 sequence (Q8TDU6 1-330): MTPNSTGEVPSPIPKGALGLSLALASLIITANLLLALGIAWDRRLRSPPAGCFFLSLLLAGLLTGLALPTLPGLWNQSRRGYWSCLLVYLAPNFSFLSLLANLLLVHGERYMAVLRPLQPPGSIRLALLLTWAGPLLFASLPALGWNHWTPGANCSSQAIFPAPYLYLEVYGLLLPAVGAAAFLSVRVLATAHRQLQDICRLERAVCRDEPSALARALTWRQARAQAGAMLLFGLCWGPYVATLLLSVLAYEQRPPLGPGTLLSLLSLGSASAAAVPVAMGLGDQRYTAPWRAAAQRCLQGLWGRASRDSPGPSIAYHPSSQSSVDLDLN
Assay: functional cAMP assay in CHO-dhfr(minus) cells expressing human GPBAR1 receptors
Format: cell-based
Conditions: functional cAMP assay, 30 min at 30° C., read-out: human EC50
Description: The final clone was verified by DNA sequence analysis. The plasmid was transfected into CHO cells deficient in dihydrofolate reductase activity (CHO-dhfr−) using Lipofectamine plus (Invitrogen). Clones were isolated in limited dilution conditions and identified by activities in the cAMP assay using lithocholic acid as agonist.
The growth medium was exchanged with Krebs Ringer Bicarbonate buffer with 1 mM IBMX and incubated at 30° C. for 30 min. Compounds were added to a final assay volume of 100 μl and incubated for 30 min at 30° C. […] The time-resolved energy transfer is measured by a TRF reader (Evotec Technologies GmbH, Hamburg Germany), equipped with a ND:YAG laser as excitation source.
EC50 values were determined using Activity Base analysis (ID Business Solution, Limited). […] Specificity for GPBAR1 was tested in non-transfected CHO cells in the same assay as above.

| EC50 | Compound |
| --- | --- |
| 153 nM | CCOC(=O)CCCNC(=O)c1ccc(C(C/C(=N\O)c2ccc(=O)n(C)c2)c2ccccc2C)cc1 (centres unmarked) [Example 212, 4-{4-[3-[(E)-Hydroxyimino]-3-(1-methyl-6-oxo-1,6-dihydro-pyridin-3-yl)-1-o-tolyl-propyl]-benzoylamino}-butyric acid ethyl ester] |

Same assay, conditions: human EC50, functional cAMP assay, 30 min at 30° C.

| Compound | EC50 |
| --- | --- |
| Cc1cc(C(=NO)C(Cc2ccc(Br)cc2)c2ccccc2)cc(C)n1 (racemic) [Example 45, 3-(4-Bromo-phenyl)-1-(2,6-dimethyl-pyridin-4-yl)-2-phenyl-propan-1-one oxime] | 1160 nM |
| Cc1cc(=O)n(C)cc1/C(CC(c1ccc(Br)cc1)c1ccccc1C)=N\O (centres unmarked) [Example 200, 5-{3-(4-Bromo-phenyl)-1-[(Z)-hydroxyimino]-3-o-tolyl-propyl}-1,4-dimethyl-1H-pyridin-2-one] | 558 nM |
| Cn1cc(/C(C[C@H](c2ccc(-c3ccc(C(=O)O)c(F)c3)cc2)c2ccc(Cl)cc2F)=N/O)ccc1=O (single isomer, unassigned) [Example 463, 4′-[(−)-1-(4-Chloro-2-fluoro-phenyl)-3-[(E)-hydroxyimino]-3-(1-methyl-6-oxo-1,6-dihydro-pyridin-3-yl)-propyl]-3-fluoro-biphenyl-4-carboxylic acid] | 154 nM |
| Cc1ccccc1[C@@H](C/C(=N\O)c1ccc(=O)n(C)c1)c1ccc(C2CCC(C(=O)O)CC2)cc1 (stereo partly drawn) [Example 487, (S,E)-4-(4-(3-(hydroxyimino)-3-(1-methyl-6-oxo-1,6-dihydropyridin-3-yl)-1-o-tolylpropyl)-phenyl)cyclohexanecarboxylic acid] | 656 nM |
| O/N=C(\CC1c2ccccc2CCc2ccccc21)c1ccncc1 [Example 60, (E)-2-(10,11-Dihydro-5H-dibenzo[a,d]cyclohepten-5-yl)-1-pyridin-4-yl-ethanone oxime] | 810 nM |
| Cn1cc(/C(CC(c2cccc(S(C)(=O)=O)c2)c2ccc(Cl)cc2F)=N/O)ccc1=O (centres unmarked) [Example 315, (E)-5-(3-(4-Chloro-2-fluorophenyl)-1-(hydroxyimino)-3-(3-(methylsulfonyl)phenyl)propyl)-1-methylpyridin-2(1H)-one] | 647 nM |
| Cc1cc(Cl)ccc1C(C/C(=N\O)c1ccc(=O)n(C)c1)c1ccc(C(=O)O)cc1 (centres unmarked) [Example 361, 4-[1-(4-Chloro-2-methyl-phenyl)-3-[(E)-hydroxyimino]-3-(1-methyl-6-oxo-1,6-dihydro-pyridin-3-yl)-propyl]-benzoic acid] | 2300 nM |
| Cn1cc(/C(CC(c2ccc(Br)cc2)c2ccc(F)cc2S(C)(=O)=O)=N/O)ccc1=O (centres unmarked) [Example 409, (E)-5-{3-(4-Bromo-phenyl)-3-(4-fluoro-2-methanesulfonyl-phenyl)-1-(hydroxyimino)-propyl}-1-methyl-1H-pyridin-2-one] | 210 nM |
| Cn1cc(/C(CC(c2ccc(C(=O)NCC(F)(F)F)c(F)c2)c2ccccc2Cl)=N/O)ccc1=O (centres unmarked) [Example 234, (E)-4-(1-(2-Chlorophenyl)-3-(hydroxyimino)-3-(1-methyl-6-oxo-1,6-dihydropyridin-3-yl)propyl)-2-fluoro-N-(2,2,2-trifluoroethyl)benzamide] | 380 nM |
| Cc1ccccc1C(C/C(=N\O)c1ccc(=O)n(C)c1)c1ccc(C(=O)N2CCC(CC(=O)O)CC2)cc1 (centres unmarked) [Example 210, (1-{4-[3-[(E)-Hydroxyimino]-3-(1-methyl-6-oxo-1,6-dihydro-pyridin-3-yl)-1-o-tolyl-propyl]-benzoyl}-piperidin-4-yl)-acetic acid] | 6890 nM |
| Cc1cc(/C(CC(c2cccc(CC(=O)O)c2)c2ccccc2C)=N/O)ccn1 (centres unmarked) [Example 105, {3-[3-[(E)-Hydroxyimino]-3-(2-methyl-pyridin-4-yl)-1-o-tolyl-propyl]-phenyl}-acetic acid] | 1020 nM |
| COc1cc(C(CC(c2ccc(Br)cc2)c2ccccc2C)=NO)ccn1 (racemic) [Example 109, 3-(4-Bromo-phenyl)-1-(2-methoxy-pyridin-4-yl)-3-o-tolyl-propan-1-one oxime] | 702 nM |
| Cc1cc(Cl)ccc1C(C/C(=N\O)c1ccc(=O)n(C)c1)c1ccc(NS(=O)(=O)C2CC2)cc1 (centres unmarked) [Example 354, Cyclopropanesulfonic acid {4-[1-(4-chloro-2-methyl-phenyl)-3-[(E)-hydroxyimino]-3-(1-methyl-6-oxo-1,6-dihydro-pyridin-3-yl)-propyl]-phenyl}-amide] | 489 nM |
| Cc1ccccc1C(C/C(=N\O)c1ccc(=O)n(C)c1)c1ccc(C(=O)NCC(=O)O)cc1 (centres unmarked) [Example 215, {4-[3-[(E)-Hydroxyimino]-3-(1-methyl-6-oxo-1,6-dihydro-pyridin-3-yl)-1-o-tolyl-propyl]-benzoylamino}-acetic acid] | 810 nM |
| Cn1cc(/C(CC(c2ccc(Br)cc2)C2CCCC2)=N\O)ccc1=O (centres unmarked) [Example 173, 5-{3-(4-Bromo-phenyl)-3-cyclopentyl-1-[(Z)-hydroxyimino]-propyl}-1-methyl-1H-pyridin-2-one] | 1930 nM |

Continued, values first:

| EC50 | Compound |
| --- | --- |
| 145 nM | Cc1cc(/C(C[C@H](c2ccc(C3CCNCC3)cc2)c2ccccc2C)=N/O)ccn1 [Example 378, (R,E)-1-(2-Methylpyridin-4-yl)-3-(4-(piperidin-4-yl)phenyl)-3-o-tolylpropan-1-one oxime] |
| 109 nM | Cc1cc(/C(CC(c2ccc(C(F)(F)F)cc2)c2ccc(F)cc2F)=N/O)ccn1 (centres unmarked) [Example 442, 3-(2,4-Difluoro-phenyl)-1-(2-methyl-pyridin-4-yl)-3-(4-trifluoromethyl-phenyl)-propan-1-one oxime] |
| 92 nM | Cc1ncsc1C(C/C(=N\O)c1ccc(=O)n(C)c1)c1ccc(Br)cc1 (centres unmarked) [Example 330, (E)-5-(3-(4-Bromophenyl)-1-(hydroxyimino)-3-(4-methylthiazol-5-yl)propyl)-1-methylpyridin-2(1H)-one] |
| 87 nM | Cc1cnc(F)cc1C(CC(c1ccc(-c2ccc(C(=O)O)cc2)cc1)c1ccccc1C)=NO (racemic) [Example 130, 4′-{3-(2-Fluoro-5-methyl-pyridin-4-yl)-3-[hydroxyimino]-1-o-tolyl-propyl}-biphenyl-4-carboxylic acid] |
| 75 nM | COCCN(C)c1ccc(C(C/C(=N\O)c2ccncc2)c2ccccc2C)cc1 (centres unmarked) [Example 39, (E)-3-{4-[(2-Methoxy-ethyl)-methyl-amino]-phenyl}-1-pyridin-4-yl-3-o-tolyl-propan-1-one oxime] |
| 55 nM | Cc1cc(/C(CC(c2ccc(C(=O)NCCO)cc2)c2ccc(F)cc2F)=N/O)ccn1 (centres unmarked) [Example 433, 4-[1-(2,4-Difluoro-phenyl)-3-[(E)-hydroxyimino]-3-(2-methyl-pyridin-4-yl)-propyl]-N-(2-hydroxy-ethyl)-benzamide] |
| 24 nM | Cc1cc(/C(C[C@H](c2ccc(N3CC4(CSC4)C3)cc2)c2ccccc2C)=N/O)ccn1 [Example 371, (3R,E)-3-(4-(2-thia-6-azaspiro[3.3]heptan-6-yl)phenyl)-1-(2-methylpyridin-4-yl)-3-o-tolylpropan-1-one oxime] |
| 21 nM | Cc1cc(/C(C[C@@H](c2ccc(N3CCC(CC(=O)O)CC3)cc2)c2ccc(F)cc2F)=N/O)ccn1 (single isomer, unassigned) [Example 430, (1-{4-[(+)-1-(2,4-Difluoro-phenyl)-3-[(E)-hydroxyimino]-3-(2-methyl-pyridin-4-yl)-propyl]-phenyl}-piperidin-4-yl)-acetic acid] |
| 18 nM | Cc1cc(Cl)ccc1[C@H](C/C(=N\O)c1ccc(=O)n(C)c1)c1ccc(-c2ccc(S(N)(=O)=O)cc2)cc1 (single isomer, unassigned) [Example 413, (−)-4′-[1-(4-Chloro-2-methyl-phenyl)-3-[(E)-hydroxyimino]-3-(1-methyl-6-oxo-1,6-dihydro-pyridin-3-yl)-propyl]-biphenyl-4-sulfonic acid amide] |
| 17 nM | Cc1cc(/C(C[C@H](c2ccc(N3CCN(S(C)(=O)=O)CC3)cc2)c2ccccc2C)=N/O)ccn1 [Example 144, (E,R)-1-(2-Methylpyridin-4-yl)-3-(4-(4-(methylsulfonyl)piperazin-1-yl)phenyl)-3-o-tolylpropan-1-one oxime] |
| 10 nM | Cc1cc(Cl)ccc1C(C/C(=N\O)c1ccc(=O)n(C)c1)c1ccc(-c2ccc(C(=O)NCC(=O)O)cc2)cc1 (single isomer, unassigned; (+)) [Example 256, (+)-({4′-[1-(4-Chloro-2-methyl-phenyl)-3-[(E)-hydroxyimino]-3-(1-methyl-6-oxo-1,6-dihydro-pyridin-3-yl)-propyl]-biphenyl-4-carbonyl}-amino)-acetic acid] |
| 10 nM | Cn1cc(/C(CC(c2ccc(CO)cc2)c2ccc(Cl)cc2F)=N/O)ccc1=O (centres unmarked) [Example 317, (E)-5-(3-(4-chloro-2-fluorophenyl)-1-(hydroxyimino)-3-(4-(hydroxymethyl)phenyl)propyl)-1-methylpyridin-2(1H)-one] |
| 3 nM | Cc1cc(/C(C[C@H](c2ccc(-c3ccc(C(=O)NCC(=O)O)cc3)cc2)c2ccccc2C)=N/O)ccn1 [Example 96, ({4′-[(R)-3-[(E)-Hydroxyimino]-3-(2-methyl-pyridin-4-yl)-1-o-tolyl-propyl]-biphenyl-4-carbonyl}-amino)-acetic acid] |
